Earlier results as cited in US20190175566A1, “ANTI-TUMOR COCKTAIL COMPRISING AN ANTI-TUMOR AGENT SELECTIVE FOR TUMOR ACIDITY, AN ANTIOXIDANT, AND A P-GLYCOPROTEIN INHIBITOR” (ARION TECNOLOGIA BRASIL- GESTAO DE ATIVOS S/A, priority 2016, published 2019).
Where two headings read alike, the source gives them in different places.

Tests used:
[1] = in mice, intravenous route

In the case of `COC1=C(OC)C(=O)C(C/C=C(\C)CC/C=C(\C)CC/C=C(\C)CC/C=C(\C)CC/C=C(\C)CC/C=C(\C)CC/C=C(\C)CC/C=C(\C)CC/C=C(\C)CCC=C(C)C)=C(C)C1=O` [Co-Q10, Coenzyme Q10], the “toxicity (LD50)” value (orally) is given as roughly 20000 mg/kg.

For `O=C(O)c1c2ccccc2nc2ccccc12` [9-acridine carboxylic acid], the “toxicity (LD50)” value (route not given) is listed as 240 mg/kg and the “toxicity (LD50)” value (via intraperitoneal application (subcutaneously)) is listed as 240 mg/kg.

In the case of `COc1cc2c(cc1OC)CN(CCc1ccc(NC(=O)c3cc(OC)c(OC)cc3NC(=O)c3cnc4ccccc4c3)cc1)CC2` [Tariquidar, tariquidar], the “toxicity (LD50)” value [1] is listed as 300 mg/kg.
